SMILES strings stand for the structures. Values after ≈ are worked out from the molar mass of the structure shown. Read-outs that look alike come from different tables or passages of the source. Positions of bridges follow the written chain, without caps; N, C: chain ends. Non-standard residues stand in square brackets, D forms with d. Residues, ends and D or L forms follow the SMILES beside them. *: point of attachment. Decanoyl(3R-OH) = CCCCCCC[C@@H](O)CC(=O)*; dDab = NCC[C@@H](N)C(=O)O; Dab = NCC[C@H](N)C(=O)O; Dap = NC[C@H](N)C(=O)O

This is an account of results in US11279733B2, “Peptide antibiotics” (priority 2017, dated 2022).

The subject of one series is A. baumannii ATCC 19606. To be noted: ATCC 19606. An outline of the steps:
(§1)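 Mid-log cultures grown in Mueller Hinton broth at 37° C were tested by 2-fold broth microdilution at 5×10^5 CFU/mL final. Compounds were dissolved in water and tested over a final range of 32 to 0.015 μg/mL.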

For series [1], the system named is P. aeruginosa GN_043, PmxR. In a few lines:
as §1

The subject of the next series is E. coli ATCC 25922. The note with it: ATCC 25922. In a few lines:
as §1

The subject of series [2] is K. pneumoniae ATCC 700603, MDR. To be noted: ATCC 700603. An outline of the steps:
as §1

The test system of a further series is K. pneumoniae ATCC 13883. To be noted: ATCC 13883. An outline of the steps: as §1
The subject of another series is P. aeruginosa ATCC 27853. To be noted: ATCC 27853. In a few lines:
as §1

For series [3], the system named is K. pneumoniae GN_106, PmxR. To be noted: GN 106, PmxR. In a few lines:
as §1

Series [4] concerns S. aureus ATCC 25923, MSSA. To be noted: ATCC 25923. In a few lines:
as §1

In a further series the test system is A. baumannii GN_093 PmxR. To be noted: GN 093 PmxR. An outline of the steps: as §1
For series [5], the system named is K. pneumoniae GN_102 PmxR. The note with it: GN 102 PmxR. An outline of the steps: as §1
In series [6] the test system is K. pneumoniae ATCC BAA-2146, NDM-1 pos. The note with it: ATCC BAA-2146. In a few lines: as §1
Series [7] has as its system P. aeruginosa GN_105, PmxR. To be noted: GN 105, PmxR. In a few lines:
as §1

The nature of the next series: in vitro. The note with it: human. An outline of the steps:
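Viability is measured by resazurin reduction (5 μM, 2 h, 37 °C) after cells seeded at 4000 per well are treated with compound for 24 h.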

`CCCCCCC[C@@H](O)CC(=O)N[C@H](CCCCN)C(=O)N[C@H]1CCNC(=O)[C@H](CC(C)C)NC(=O)[C@H](CCN)NC(=O)[C@H](CCN)NC(=O)[C@H](CC(C)C)NC(=O)[C@@H](Cc2ccccc2)NC(=O)[C@H](CCN)NC1=O` [compound 5381, 3(R)OH-nC9CO-D-Lys-cyc[L-Dab-L-Dab-D-Phe-L-Leu-L-Dab-L-Dab-L-Leu]] ({Decanoyl(3R-OH)}-[dK][Dab][Dab][dF]L[Dab][Dab]L; lactam 2-C): the “MIC, A. baumannii ATCC 19606” value with A. baumannii ATCC 19606 is 16 µg/mL (≈ 14.9 µM). The “MIC P. aeruginosa GN_043, PmxR” value in series [1] (Table 6, polymyxin-resistant) was 2 µg/mL (≈ 1.86 µM). Also, in the series with E. coli ATCC 25922, the “MIC, E. coli ATCC 25922” value turned out to be 8 µg/mL (≈ 7.46 µM). Moreover, the “MIC, K. pneumoniae ATCC 700603, MDR” value in [2] is 4 µg/mL (≈ 3.73 µM). The “MIC, K. pneumoniae ATCC 13883” value in the series on K. pneumoniae ATCC 13883 worked out at 8 µg/mL (≈ 7.46 µM). Also, the “MIC, P. aeruginosa ATCC 27853” value in the series on P. aeruginosa ATCC 27853 worked out at 4 µg/mL (≈ 3.73 µM). The “MIC K. pneumoniae GN_106, PmxR” value in [3] was 4 µg/mL (≈ 3.73 µM). For the same molecule, in series [4], the “MIC, S. aureus ATCC 25923, MSSA” value was greater than 32 µg/mL. Further, in the series on A. baumannii GN_093 PmxR, the “MIC A. baumannii GN_093 PmxR” value was 8 µg/mL (≈ 7.46 µM). In series [5], the “MIC K. pneumoniae GN_102 PmxR” value was found to be 4 µg/mL (≈ 3.73 µM). The “MIC, K. pneumoniae ATCC BAA-2146, NDM-1 pos” value in series [6] turned out to be 8 µg/mL (≈ 7.46 µM). Moreover, in [7], the “MIC P. aeruginosa GN_105, PmxR” value turned out to be 4 µg/mL (≈ 3.73 µM). Moreover, in “in vitro”, the CC50 at 24 h was greater than 300 µM.
Take `CCCCCCC[C@@H](O)CC(=O)N[C@H](CCN)C(=O)N[C@H]1CCCCNC(=O)[C@H](CC(C)C)NC(=O)[C@H](CCN)NC(=O)[C@H](CCN)NC(=O)[C@H](CC(C)C)NC(=O)[C@@H](Cc2ccccc2)NC(=O)[C@H](CCN)NC1=O` [compound 5382, 3(R)OH-nC9CO-D-Dab-cyc[L-Lys-L-Dab-D-Phe-L-Leu-L-Dab-L-Dab-L-Leu]] ({Decanoyl(3R-OH)}-[dDab]K[Dab][dF]L[Dab][Dab]L; lactam 2-C): in the series on A. baumannii ATCC 19606, the “MIC A. baumannii ATCC 19606” value stood at 32 µg/mL (≈ 29.8 µM). In [1] (P. aeruginosa GN_043, PmxR), the “MIC P. aeruginosa GN_043, PmxR” value was 2 µg/mL (≈ 1.86 µM). Further, the “MIC E. coli ATCC 25922” value with E. coli ATCC 25922 came to 4 µg/mL (≈ 3.73 µM). The “MIC K. pneumoniae ATCC 700603, MDR” value in [2] was found to be 8 µg/mL (≈ 7.46 µM). Also, the “MIC K. pneumoniae ATCC 13883” value in the series on K. pneumoniae ATCC 13883 is 8 µg/mL (≈ 7.46 µM). The “MIC P. aeruginosa ATCC 27853” value against P. aeruginosa ATCC 27853 came to 4 µg/mL (≈ 3.73 µM). The “MIC K. pneumoniae GN_106, PmxR” value in series [3] is greater than 32 µg/mL. Besides, in [4], the “MIC S. aureus ATCC 25923, MSSA” value was determined as 32 µg/mL (≈ 29.8 µM). Moreover, the “MIC A. baumannii GN_093 PmxR” value against A. baumannii GN_093 PmxR was greater than 32 µg/mL. Moreover, in [5], the “MIC K. pneumoniae GN_102 PmxR” value is greater than 32 µg/mL. The “MIC K. pneumoniae ATCC BAA-2146, NDM-1 pos” value in series [6] was determined as 8 µg/mL (≈ 7.46 µM). The “MIC P. aeruginosa GN_105, PmxR” value in [7] came out at 2 µg/mL (≈ 1.86 µM). For the same molecule, the CC50 at 24 h in “in vitro” is greater than 300 µM.
`CCCCCCC[C@@H](O)CC(=O)N[C@@H](CN)C(=O)N[C@H]1CCNC(=O)[C@H](CC(C)C)NC(=O)[C@H](CCN)NC(=O)[C@H](CCN)NC(=O)[C@H](CC(C)C)NC(=O)[C@@H](Cc2ccccc2)NC(=O)[C@H](CCN)NC1=O` [compound 5561, 3(R)OH-nC9CO-L-Dap-cyc[L-Dab-L-Dab-D-Phe-L-Leu-L-Dab-L-Dab-L-Leu]] ({Decanoyl(3R-OH)}-[Dap][Dab][Dab][dF]L[Dab][Dab]L; lactam 2-C): the “MIC, A. baumannii ATCC 19606” value in the series on A. baumannii ATCC 19606 is 16 µg/mL (≈ 15.5 µM). The “MIC P. aeruginosa GN_043, PmxR” value in [1] (Table 6, polymyxin-resistant) is 2 µg/mL (≈ 1.94 µM). The “MIC, E. coli ATCC 25922” value against E. coli ATCC 25922 is 4 µg/mL (≈ 3.88 µM). In addition, in series [2], the “MIC, K. pneumoniae ATCC 700603, MDR” value was 8 µg/mL (≈ 7.76 µM). Moreover, the “MIC, K. pneumoniae ATCC 13883” value in the series with K. pneumoniae ATCC 13883 worked out at 4 µg/mL (≈ 3.88 µM). For the same molecule, the “MIC, P. aeruginosa ATCC 27853” value against P. aeruginosa ATCC 27853 stood at 2 µg/mL (≈ 1.94 µM). The “MIC K. pneumoniae GN_106, PmxR” value in series [3] stood at 4 µg/mL (≈ 3.88 µM). In [4], the “MIC, S. aureus ATCC 25923, MSSA” value was 16 µg/mL (≈ 15.5 µM). Also, the “MIC A. baumannii GN_093 PmxR” value in the series on A. baumannii GN_093 PmxR was 8 µg/mL (≈ 7.76 µM). Moreover, the “MIC K. pneumoniae GN_102 PmxR” value in [5] came to 4 µg/mL (≈ 3.88 µM). The “MIC, K. pneumoniae ATCC BAA-2146, NDM-1 pos” value in series [6] worked out at 8 µg/mL (≈ 7.76 µM). In series [7], the “MIC P. aeruginosa GN_105, PmxR” value was found to be 2 µg/mL (≈ 1.94 µM). Also, the CC50 at 24 h in “in vitro” was greater than 300 µM.
